Values of other authors, collected in PMC8198792, “Prediction of Anticancer Peptides with High Efficacy and Low Toxicity by Hybrid Model Based on 3D Structure of Peptides” (International Journal of Molecular Sciences, 2021).

Test system: erythrocytes
Settings: Hemolytic peptides dataset HD2; label 1 = hemolytic, 0 = non-hemolytic; ref Hemolytik/SATPdb; cited from earlier work
Excerpt: Supplement ijms-22-05630-s001.zip/Hemloytic Peptides(seguence).xlsx, sheet "HD1" | column: Activity || Supplement ijms-22-05630-s001.zip/Hemloytic Peptides(seguence).xlsx, sheet "HD2" | column: Activity || Supplement ijms-22-05630-s001.zip/Hemloytic Peptides(seguence).xlsx, sheet "HD3" | column: Activity

Row | Substance | Activity
1 | WLLKW [satpdb27330] | 0
2 | GFLSILKKVLKVMAHMK [satpdb11385] | 1
3 | KWKLFKKIPKFLHLAK [satpdb17849] | 0
4 | KKlFKKILkYL [satpdb19353] | 0
5 | AAGMGFFGAR [satpdb25191] | 0
6 | KWKLFKKIPKFLHLAKKF [compound 2405] | 0
7 | GIGKFLHSAKKFGKAFVGEIMNS [satpdb11151] | 1

Same assay, conditions: cited from earlier work

Row | Substance | Activity | Activity (dataset HD1, hemolytic 1 / non-hemolytic 0)
8 | AKKVSKRLEKLFSKIQNDK [satpdb19605] | 0 | 0
9 | QLQGKQVSGEVVQKVLQELIQSVAKP [satpdb28356] | 0 | 0
10 | QTRRLTYKpRTVTYTRGR [satpdb13569] | 1 | –
11 | GMWSKIKNAGKAAKAAAKAAGKAALGAVSEAM [satpdb14564] | 0 | 0
12 | CKTRTSTNTDHLWIAKSKARLSET [satpdb28106] | 0 | 0
13 | KLLKLLLKLLLKLLK [compound 3689] | 1 | –
14 | KLLKKPLKLKL [satpdb17171] | 0 | –
15 | KWKLFKKIGPGKFLHSAKKF [satpdb18846] | 0 | –
16 | KLLLKLLLK [compound 3826] | 1 | –
17 | GWGSIFKHGRHAAKHIGHAAVNHYL [satpdb11681] | 1 | –
18 | ILGKLLSTAAKLLSKL [satpdb12927] | 1 | –
19 | VGKTWIKVIRGIGKSKIKWQ [satpdb28870] | 0 | 0
20 | KNLRRITRKIIHIIKKYG [satpdb15247] | 1 | 1
21 | RRGWVLALYLRYGRR [satpdb15589] | 1 | 1
22 | RIIDLLWRVRRPQKPKFVTVWVR [satpdb14815] | 0 | 0
23 | RAGLQFPVGRLLRRLLR [satpdb15223] | 0 | 0
24 | RWRSFFKKAAHRGKHVGKRARTHYL [satpdb15888] | 0 | –
25 | KWKSFLKTFKSLKKTVLHTLLKAISS [satpdb11586] | 1 | –
26 | RFGRFLRKIRRFRPK [satpdb23150] | 0 | 0
27 | LKDVEEAQQKIINIIRRL [satpdb22186] | 0 | –
28 | KSLRRVWRSWR [satpdb26460] | 0 | –

Row | Substance | Activity | Activity (dataset HD1, hemolytic 1 / non-hemolytic 0)
29 | KRLFKKLLFSLRKY [satpdb21867] | 0 | 0
30 | QSRVIQGLVAGETAQQICED [satpdb27946] | 0 | 0
31 | GIIKKIIKKI [satpdb26556] | 0 | –
32 | FDWDSVLKGVEGFVRGYF [satpdb25715] | 0 | 0
33 | KWKLFKKIPKFLHL [satpdb16155] | 0 | –
34 | DANVENGEDAEDLTDKFIGLMG [satpdb17330] | 0 | 0
35 | ENMFNIKSSVESDSFWG [satpdb15776] | 0 | 0
36 | KKKKKKAAFAAWAAFAA [satpdb19804] | 0 | –
37 | AKKVFKRLEKSFSKIQNDK [satpdb11458] | 0 | 0
38 | CVISAGWNHKIRCKLTGNC [satpdb27441] | 0 | 0
39 | KKWLKKWLK [satpdb18253] | 0 | –
40 | FGVLAKVAAHVVPAIAEHF [satpdb27842] | 0 | –
41 | KWKLFKKIGIGKFLHSAKKF [compound 2023] | 0 | –
42 | GWKKWLRKGAKHLGQAAIK [satpdb12620] | 1 | –
43 | DVNDLKNLCAKTHNLLPMCAMFGKK [satpdb20310] | 0 | 0
44 | KKAAHVGKHVGKAALTHYL [satpdb21325] | 0 | –
45 | VRRFPAAAPFLRR [satpdb24534] | 0 | 0
46 | AKKVFKRLEKLFSKIWNDK [satpdb16260] | 0 | 0
47 | LKKWLKKWLKK [satpdb15781] | 0 | –
48 | GILDTLKQFAKGVGKDLVKGAAQGVLSTVSCKLAKTC [satpdb16042] | 0 | 0
49 | RGGRLAYCRRRFCVAVGR [satpdb25189] | 0 | –

Row | Substance | Activity | Activity (dataset HD1, hemolytic 1 / non-hemolytic 0)
50 | GKLNLFLSRLEILKLFVGAL [satpdb18533] | 0 | 0
51 | LLKKLLKWLKK [satpdb11747] | 1 | –
52 | KKKKKKALFAAWAAFLA [compound 1151] | 1 | –
53 | KWKSFLkTFKSLKKTVLHTLLKAISS [satpdb10544] | 1 | –
54 | KWLRRVWRWWR [satpdb13727] | 1 | –
55 | HVDKKVADKVLLLKQLRIMRLLTRL [satpdb19920] | 0 | 0
56 | FLPLLLAGLPKLLCLFFKKC [satpdb14955] | 1 | 1
57 | KKVVFKVKFK [satpdb13312] | 0 | –
58 | GIHDILKYGKPS [satpdb19051] | 0 | 0
59 | CKLLKTFLSKWIC [compound 3456] | 1 | –
60 | VLSAADKGNVKAAWGKVGGHAAE [satpdb26597] | 0 | 0
61 | IKIPPIVKDTLKKVAKGVLSTIAGALST [satpdb27001] | 0 | 0
62 | GWGSFFKKAAAVGKAVGKAALTAYL [satpdb15739] | 1 | 1
63 | KWKWKW [satpdb24601] | 0 | –
64 | WYLTLTLGYGRR [satpdb16552] | 1 | 1
65 | RRLMAAKAESRK [satpdb23556] | 0 | 0
66 | GFWKKVGSAAWGGVKAAAKGAAVGGLNALAKHIQ [satpdb28387] | 0 | 0
67 | LRQSQFVGSR [satpdb22092] | 0 | –
68 | KRLFRRWQWRMKKY [satpdb17153] | 0 | 0
69 | GWRKWIKKATHVGKHIGKAALDAYI [satpdb10530] | 1 | –
70 | KKLKKLKKKWKKLKKKLK [satpdb24596] | 0 | 0

Same assay, conditions: hemolytic peptides dataset HD3; 1 = hemolytic (positive set), 0 = non-hemolytic (negative set); labels taken from databases; ref Hemolytik/SATPdb; cited from earlier work

Row | Substance | Activity
71 | WLLKW [satpdb27330] | 0
72 | GFLSILKKVLKVMAHMK [satpdb11385] | 1
73 | KWKLFKKIPKFLHLAK [satpdb17849] | 0
74 | KKlFKKILkYL [satpdb19353] | 0
75 | AAGMGFFGAR [satpdb25191] | 0
76 | KWKLFKKIPKFLHLAKKF [compound 2405] | 0
77 | GVPCGESCVFIPCITGVIGCSCSSNVCYLN [satpdb12922] | 1
78 | KNWKGIAGMAKKLLGKNWELMKK [satpdb11666] | 1
79 | EWGRRCCGWGPGRRYCRRWC [satpdb13121] | 0
80 | GIGKFLHSAKKFGKAFVGEIMNS [satpdb11151] | 1

Same assay, conditions: natural hemolytic peptide dataset HD1, label collected from databases; ref Hemolytik [49], SATPdb [34]; cited from earlier work

Row | Substance | Activity (dataset HD1, hemolytic 1 / non-hemolytic 0)
81 | GVPCGESCVFIPCITGVIGCSCSSNVCYLN [satpdb12922] | 1
82 | KNWKGIAGMAKKLLGKNWELMKK [satpdb11666] | 1
83 | EWGRRCCGWGPGRRYCRRWC [satpdb13121] | 0
